Experimental findings from patent US7816497B2, “Compositions and methods for inhibiting drusen complement components C3a and C5a for the treatment of age-related macular degeneration” (University of Kentucky, priority 2002, dated 2010) are described below.

For one assay, the system named is laser-induced CNV. Put plainly: Laser-induced CNV in wild-type mice, intravitreous injection of complement blockers. In kind it is in vivo. To be noted: intravitreous injection immediately after laser injury, compared with control peptide or isotype control antibodies. As to the method: Laser photocoagulation (532 nm, 200 mW, 100 ms, 75 μm) (OcuLight GL, Iridex) was performed (volume studies: 3/eye; protein analyses/flow cytometry: 12/eye) on both eyes of each animal to induce CNV as previously described in Sakurai, E., Taguchi, H., Anand, A., Ambati, B. K., Gragoudas, E. S., Miller, J. W., Adamis, A. P. & Ambati, J. (2003) Invest Ophthalmol Vis Sci 44, 2743-9; and Sakurai, E., Anand, A., Ambati, B. K., van Rooijen, N. & Ambati, J. (2003) Invest Ophthalmol Vis Sci 44, 3578-85. CNV volumes were measured by scanning laser confocal microscope (TCS SP, Leica) as previously reported (Id.) with 0.5% FITC-Griffonia simplicifolia Isolectin B4 (Vector Laboratories) or 0.5% FITC-rat antibody against mouse CD31 (BD Pharmingen). Volumes obtained by lectin and CD31 staining were highly correlated (r^2=0.95). […]
Because the probability of each laser lesion developing CNV is influenced by the group to which it belongs, the mouse, the eye, and the laser spot, the mean lesion volumes were compared using a linear mixed model with a split plot repeated measures design, as previously described. […] Statistical significance was determined at the 0.05 level. […]

In a further assay the test system is VEGF. Nature of the assay: VEGF levels in mouse eye tissue after intravitreous injection (VEGF ELISA). In kind it is in vivo. The following applies: wild-type mice, 4 hours after injection, dose-dependent. As to the method:
(§1) The RPE/choroid complex was dissected from the mouse eye and sonicated in lysis buffer (20 mM imidazole HCl, 10 mM KCl, 1 mM MgCl2, 10 mM EGTA, 1% Triton X-100, 10 mM NaF, 1 mM Na molybdate, 1 mM EDTA with protease inhibitor (Sigma-Aldrich)) on ice for 45 sec. VEGF protein levels (pg/ml) in the RPE cell culture supernatant or the RPE/choroid lysate were determined by ELISA (R&D Systems) and normalized to total protein (μg/ml) (Bio-Rad).
(§2) VEGF protein data are represented as the mean±s.e.m. of at least 3 independent experiments and compared using a two-tailed Student's t-test. The null hypothesis was rejected at P<0.05.
Background: An ELISA detects its analyte on a solid surface through an enzyme-linked reagent.

The test system of a further assay is human RPE cells. Nature of the assay: VEGF secretion by human RPE cells (VEGF ELISA). The assay is classed as cell-based. To be noted: 50 ng/ml; confluent and subconfluent conditions; compared to PBS. As to the method: Human RPE cells (gift of David R. Hinton, University of Southern California) were cultured in Dulbecco's modified essential medium (Invitrogen) containing 10% fetal bovine serum, penicillin G (100 U/ml), streptomycin sulfate (0.1 mg/ml) (all from Sigma-Aldrich) at 37° C. under 10% CO2 and 90% room air. Cells were used for experiments upon attaining 80% or 100% confluence.
as §1, §2

Assay [1] concerns macrophages or neutrophils in the choroid. Nature of the assay: Leukocyte numbers in the choroid after intravitreous injection (flow cytometry). The assay is classed as in vivo, mice. To be noted: 4 hours after intravitreous injection; data not shown. As to the method:
Single cell suspensions isolated from mouse RPE/choroids via collagenase D treatment (20 U/mL; Roche Diagnostics) were incubated in Fc block (0.5 mg/mL; BD Pharmingen) for 15 min on ice, stained with Cy5-rat antibody to mouse F4/80 (1:30; Serotec), FITC-hamster antibody to mouse CD11c (1:100; Serotec), or PE-rat antibody to mouse Gr-1 (1:200; eBioscience), and subjected to FACS analysis (FACScalibur, BD Biosciences). Macrophages and neutrophils were defined as F4/80+CD11c- and Gr-1+F4/80-cells, respectively.

Consider AcF[OPdChaWR] [C5aRA], for which the “CNV (volume of laser-induced CNV)” value with laser-induced CNV is “reduced”.

Turning to “C3a: activated complement component 3 (human), applied to RPE cells or injected intravitreously”, the “VEGF levels in the RPE/choroid” value with VEGF is “increase”. Also, in the assay on human RPE cells, the “human RPE cell secretion of VEGF” value was “upregulated”. In assay [1], the “number of macrophages or neutrophils in the choroid” value is reported as “no increase”.

Turning to `N=C(N)NCCC[C@H](NC(=O)COCC(c1ccccc1)c1ccccc1)C(=O)O` [C3aRA, N^2-[(2,2-diphenylethoxy)acetyl]-arginine], in the assay on laser-induced CNV, the “CNV (volume of laser-induced CNV)” value was “reduced”.

B1: C5a: activated complement component 5 (human), applied to RPE cells or injected intravitreously (protein, UniProt P01031 678-751, looked up)
C5a anaphylatoxin: TLQKKIEEIAAKYKHSVVKKCCYDGACVNNDETCEQRAARISLGPRCIKAFTECCVVASQLRANISHKDMQLGR
modifications: C5a anaphylatoxin
Take B1: the “VEGF levels in the RPE/choroid” value with VEGF was “increase”. In addition, the “human RPE cell secretion of VEGF” value with human RPE cells is on record as “upregulated”. Also, in assay [1], the “number of macrophages or neutrophils in the choroid” value was “no increase”.
